Reference: patent publication US20240317724A1, “3,4-METHYLENEDIOXYMETHAMPHETAMINE AND RELATED PS[…] USES THEREOF” (Terran Biosciences Inc., priority 2021, published 2024)

Assay: Single oral (PO) dose pharmacokinetics study in rats; plasma concentration of MDMA (and prodrug) by LC-MS/MS
Conditions: male SD rats
[1] = 0.50 h after oral dosing of prodrug 10 mg/Kg
[2] = 1.00 h after oral dosing of prodrug 10 mg/Kg
[3] = 2.00 h after oral dosing of prodrug 10 mg/Kg
[4] = 4.00 h after oral dosing of prodrug 10 mg/Kg
[5] = 7.00 h after oral dosing of prodrug 10 mg/Kg
[6] = 24.0 h after oral dosing of prodrug 10 mg/Kg

SMILES | Mean plasma concentration of metabolite MDMA [1] | Mean plasma concentration of metabolite MDMA [2] | Mean plasma concentration of metabolite MDMA [3] | Mean plasma concentration of metabolite MDMA [4] | Mean plasma concentration of metabolite MDMA [5] | Mean plasma concentration of metabolite MDMA [6]
CC(Cc1ccc2c(c1)OCO2)N(C)C(=O)OC1CCOC1 (stereo not drawn) [THF carbamate prodrug of MDMA, tetrahydrofuran-3-yl N-[2-(1,3-benzodioxol-5-yl)-1-methyl-ethyl]-N-methyl-carbamate] | BLQ (BLQ: Below Lower Limit of Quantification (0.5 ng/mL)) | BLQ (BLQ: Below Lower Limit of Quantification (0.5 ng/mL)) | BLQ (BLQ: Below Lower Limit of Quantification (0.5 ng/mL)) | BLQ (BLQ: Below Lower Limit of Quantification (0.5 ng/mL)) | BLQ (BLQ: Below Lower Limit of Quantification (0.5 ng/mL)) | BLQ (BLQ: Below Lower Limit of Quantification (0.5 ng/mL))
CC(Cc1ccc2c(c1)OCO2)N(C)C(=O)CCCC(=O)O (stereo not drawn) [Glutarate Prodrug of MDMA, 4-{[2-(2H-1,3-Benzodioxol-5-yl)-1-methyl-ethyl]-N-methylcarbamoyl}butyric acid] | BLQ (BLQ: Below Lower Limit of Quantification (0.5 ng/mL)) | BLQ (BLQ: Below Lower Limit of Quantification (0.5 ng/mL)) | BLQ (BLQ: Below Lower Limit of Quantification (0.5 ng/mL)) | BLQ (BLQ: Below Lower Limit of Quantification (0.5 ng/mL)) | BLQ (BLQ: Below Lower Limit of Quantification (0.5 ng/mL)) | BLQ (BLQ: Below Lower Limit of Quantification (0.5 ng/mL))
CC(=O)OCC(C)(C)CC(=O)N(C)C(C)Cc1ccc2c(c1)OCO2 (stereo not drawn) [(3-{[2-(2H-1,3-Benzodioxol-5-yl)-1-methylethyl]-N-methylcarbamoyl}-2,2-dimethylpropyl acetate] | BLQ (BLQ: Below Lower Limit of Quantification (0.5 ng/mL)) | BLQ (BLQ: Below Lower Limit of Quantification (0.5 ng/mL)) | BLQ (BLQ: Below Lower Limit of Quantification (0.5 ng/mL)) | BLQ (BLQ: Below Lower Limit of Quantification (0.5 ng/mL)) | BLQ (BLQ: Below Lower Limit of Quantification (0.5 ng/mL)) | BLQ (BLQ: Below Lower Limit of Quantification (0.5 ng/mL))
CC(Cc1ccc2c(c1)OCO2)N(C)C(=O)C1CCOC1 (stereo not drawn) [N-[2-(2H-1,3-Benzodioxol-5-yl)-1-methyl-ethyl]-N-methyl-tetrahydro-3-furamide] | BLQ (BLQ: Below Lower Limit of Quantification (0.5 ng/mL)) | BLQ (BLQ: Below Lower Limit of Quantification (0.5 ng/mL)) | BLQ (BLQ: Below Lower Limit of Quantification (0.5 ng/mL)) | BLQ (BLQ: Below Lower Limit of Quantification (0.5 ng/mL)) | BLQ (BLQ: Below Lower Limit of Quantification (0.5 ng/mL)) | BLQ (BLQ: Below Lower Limit of Quantification (0.5 ng/mL))
CC(Cc1ccc2c(c1)OCO2)N(C)C(=O)CCCCC(=O)O (stereo not drawn) [Adipate prodrug of MDMA, 5-{[2-(2H-1,3-Benzodioxol-5-yl)-1-methyl-ethyl]-N-methylcarbamoyl}valeric acid] | BLQ (BLQ: Below Lower Limit of Quantification (0.5 ng/mL)) | BLQ (BLQ: Below Lower Limit of Quantification (0.5 ng/mL)) | BLQ (BLQ: Below Lower Limit of Quantification (0.5 ng/mL)) | BLQ (BLQ: Below Lower Limit of Quantification (0.5 ng/mL)) | BLQ (BLQ: Below Lower Limit of Quantification (0.5 ng/mL)) | BLQ (BLQ: Below Lower Limit of Quantification (0.5 ng/mL))
CC(C)COC(=O)N(C)C(C)Cc1ccc2c(c1)OCO2 (stereo not drawn) [Isobutyl carbamate prodrug of MDMA, isobutyl N-[2-(1,3-benzodioxol-5-yl)-1-methyl-ethyl]-N-methyl-carbamate] | BLQ (BLQ: Below Lower Limit of Quantification (0.5 ng/mL)) | BLQ (BLQ: Below Lower Limit of Quantification (0.5 ng/mL)) | BLQ (BLQ: Below Lower Limit of Quantification (0.5 ng/mL)) | BLQ (BLQ: Below Lower Limit of Quantification (0.5 ng/mL)) | BLQ (BLQ: Below Lower Limit of Quantification (0.5 ng/mL)) | BLQ (BLQ: Below Lower Limit of Quantification (0.5 ng/mL))
CC(Cc1ccc2c(c1)OCO2)N(C)C(=O)C1CCOCC1 (stereo not drawn) [Pyran amide prodrug of MDMA, N-[2-(2H-1,3-Benzodioxol-5-yl)-1-methyl-ethyl]-N-methyl-tetrahydro-2H-pyran-4-carboxamide] | BLQ (BLQ: Below Lower Limit of Quantification (0.5 ng/mL)) | BLQ (BLQ: Below Lower Limit of Quantification (0.5 ng/mL)) | BLQ (BLQ: Below Lower Limit of Quantification (0.5 ng/mL)) | BLQ (BLQ: Below Lower Limit of Quantification (0.5 ng/mL)) | BLQ (BLQ: Below Lower Limit of Quantification (0.5 ng/mL)) | BLQ (BLQ: Below Lower Limit of Quantification (0.5 ng/mL))
CC(Cc1ccc2c(c1)OCO2)N(C)C(=O)OC1COC1 (stereo not drawn) [Oxetane-3-yl carbamate prodrug of MDMA, Oxetan-3-yl N-[2-(1,3-benzodioxol-5-yl)-1-methyl-ethyl]-N-methyl-carbamate] | BLQ (BLQ: Below Lower Limit of Quantification (0.5 ng/mL)) | BLQ (BLQ: Below Lower Limit of Quantification (0.5 ng/mL)) | BLQ (BLQ: Below Lower Limit of Quantification (0.5 ng/mL)) | BLQ (BLQ: Below Lower Limit of Quantification (0.5 ng/mL)) | BLQ (BLQ: Below Lower Limit of Quantification (0.5 ng/mL)) | BLQ (BLQ: Below Lower Limit of Quantification (0.5 ng/mL))
CC(Cc1ccc2c(c1)OCO2)N(C)C(=O)OCC(C)(C)COC(=O)C(C)(C)C (stereo not drawn) [[3-[[2-(1,3-Benzodioxol-5-yl)-1-methyl-ethyl]-methyl-carbamoyl]oxy-2,2-dimethyl-propyl] 2,2-dimethylpropanoate] | BLQ (BLQ: Below Lower Limit of Quantification (0.5 ng/mL)) | BLQ (BLQ: Below Lower Limit of Quantification (0.5 ng/mL)) | BLQ (BLQ: Below Lower Limit of Quantification (0.5 ng/mL)) | BLQ (BLQ: Below Lower Limit of Quantification (0.5 ng/mL)) | BLQ (BLQ: Below Lower Limit of Quantification (0.5 ng/mL)) | BLQ (BLQ: Below Lower Limit of Quantification (0.5 ng/mL))
